According to patent US11103582B2, “Method to achieve extended expression of DNA infused into liver” (IMMUSOFT CORPORATION, priority 2012, dated 2021):

Tested on: Kupffer cells
Details: Dog #17: dexamethasone 1 mg/kg days −1, 0, 2, 4 then twice weekly + cyclophosphamide 10 mg/kg day 0 then weekly; no GdCl3; pKT2/CLP-cSEAP//PGK-SB100x into LHV
Protocol: Infusions of pKT2/clp-cSEAP//PGK-SB100x (FIG. 2) into the left hepatic vein were carried out as described in the text, collecting plasma samples before, during and after the infusion procedure and assaying for heat stable alkaline phosphatase activity.

Structure (SMILES): C[C@@H]1C[C@H]2[C@@H]3CCC4=CC(=O)C=C[C@]4(C)[C@@]3(F)[C@@H](O)C[C@]2(C)[C@@]1(O)C(=O)CO [Dexamethasone]
- Time after which cSEAP expression was extinguished: about 4 weeks

Structure (SMILES): O=P1(N(CCCl)CCCl)NCCCO1 (centres unmarked) [Cyclophosphamide]
- Time after which cSEAP expression was extinguished: about 4 weeks
